This test has as its target T1, human SK3 channel (hKCa2.3) (Homo sapiens, UniProt Q9UGI6).
T1 construct: expressed in transfected cells
As to the kind of experiment: Automated patch clamping (QPatch 16 HT whole cell patch-clamp). It counts as cell-based. The following applies: HEK-293 cells stably expressing hKCa2.3; free calcium 400 nM; effects normalized to N-methyl bicuculline; read-out: IC50 in the Automated patch clamping assay (concentration needed to inhibit half of the SK channel activity). How it is done:
Automated whole cell patch-clamp recordings were performed using a QPatch 16 HT system and single-hole Qplates (Biolin Scientific, Sophion, Denmark) on HEK-293 cells stably expressing the human SK3 channel (hKCa2.3). Cells were cultured and prepared for experiments using normal cell culturing procedures. A total of 4-5 million cells were used per experiment. The Qpatch automatically generates giga sealing, whole-cell formation, compound application and recording of current. hKCa2.3 currents were recorded in symmetrical K^+ solutions, with an intracellular solution consisting of in mM: KCl 108; KOH/EGTA (ethylene glycol-bis(2-aminoethylether)-N,N,N′,N′-tetraacetic acid) 31.25/10; CaCl2 8.1; MgCl2 1.2; HEPES (2-[4-(2-hydroxyethyl)piperazin-1-yl]ethanesulfonic acid) 10; KOH 15, pH adjusted to pH=7.2 with HCl. The free calcium concentration was calculated to 400 nM. The extracellular solution consisted of in mM: KCl 150; CaCl2 0.1; MgCl2 3; HEPES 10; Glucose 10, pH=7.4 with KOH. The cells were held at 0 mV and hKCa2.3 currents were elicited by a linear voltage ramp from −80 mV to +80 mV (200 ms in duration) applied every 5th second. The compound application protocol consisted of 12 recording periods lasting from 50-200 s: 1) Baseline recordings in extracellular solution; 2) Application of the positive control N-methyl bicuculline (100 μM), which is characterized by full efficacy, fast on- and off-rate; 3-4) Wash-out; 5-9) Increasing concentrations of test compound to establish an IC50 value; 10-11) Wash-out; 12) positive control with compound NS8593 (N-[(1R)-1,2,3,4-tetrahydro-1-naphthalenyl]-1H-benzimidazol-2-amine) (1 μM). Data were sampled at 10 kHz, 4th order Bessel filter, cut-off frequency 3 kHz. Currents were compensated for run-down. Potency was quantified as the concentration needed to inhibit half of the SK channel activity and reported as an IC50 value. All effects of compounds of the present invention as tested were normalized to the observed inhibitory effect of N-methyl bicuculline.
Regarding `CCC(=O)NCC(Nc1nc2ccccc2[nH]1)c1cccc(C(F)(F)F)c1` (single isomer, unassigned) [Example 10a, N-{2-[(1H-1,3-benzodiazol-2-yl)amino]-2-[3-(trifluoromethyl)phenyl]ethyl}propanamide], the IC50 is less than 10 µM.

For the compound `CC(=O)NCCC(Nc1nc2ccccc2[nH]1)c1cccc(C(F)(F)F)c1` (single isomer, unassigned; (-)) [Example 14a, (−)-N-{3-[(1H-1,3-benzodiazol-2-yl)amino]-3-[3-(trifluoromethyl)phenyl]propyl}acetamide], the IC50 was less than 10 µM.

`CC(=O)N(C)CCC(Nc1nc2ccccc2[nH]1)c1cccc(C(F)(F)F)c1` (single isomer, unassigned; (-)) [Example 18a, (−)-N-{3-[(1H-1,3-benzodiazol-2-yl)amino]-3-[3-(trifluoromethyl)phenyl]propyl}-N-methylacetamide]: the IC50 is less than 10 µM.

With `CC(=O)NCCCC(Nc1nc2ccccc2[nH]1)c1cccc(C(F)(F)F)c1` (single isomer, unassigned; (-)) [Example 19a, (−)-N-{4-[(1H-1,3-benzodiazol-2-yl)amino]-4-[3-(trifluoromethyl)phenyl]butyl}acetamide], the IC50 is less than 10 µM.

Regarding `CC(=O)NCCC(Nc1nc2ccccc2[nH]1)c1cccc(OC(F)(F)F)c1` (single isomer, unassigned; (-)) [Example 22a, (−)-N-{3-[(1H-1,3-benzodiazol-2-yl)amino]-3-[3-(trifluoromethoxy)phenyl]propyl}acetamide], the IC50 was less than 10 µM.

As to `O=C(NCC(Nc1nc2ccccc2[nH]1)c1cccc(C(F)(F)F)c1)c1ccon1` (stereo not drawn) [Example 1, N-{2-[(1H-1,3-benzodiazol-2-yl)amino]-2-[3-(trifluoromethyl)phenyl]ethyl}-1,2-oxazole-3-carboxamide], the IC50 was less than 10 µM.

Take `O=C(NCC(Nc1nc2ccccc2[nH]1)c1cccc(C(F)(F)F)c1)C1CCC1` (stereo not drawn) [Example 2, N-{2-[(1H-1,3-benzodiazol-2-yl)amino]-2-[3-(trifluoromethyl)phenyl]ethyl}cyclobutanecarboxamide]: the IC50 is less than 10 µM.

As to `O=C(NCC(Nc1nc2ccccc2[nH]1)c1cccc(C(F)(F)F)c1)C1CC1` (stereo not drawn) [Example 3, N-{2-[(1H-1,3-benzodiazol-2-yl)amino]-2-[3-(trifluoromethyl)phenyl]ethyl}cyclopropanecarboxamide], the IC50 is less than 10 µM.

In the case of `O=C(NCC(Nc1nc2ccccc2[nH]1)c1cccc(C(F)(F)F)c1)c1ncon1` (stereo not drawn) [Example 4, N-{2-[(1H-1,3-benzodiazol-2-yl)amino]-2-[3-(trifluoromethyl)phenyl]ethyl}-1,2,4-oxadiazole-3-carboxamide; trifluoroacetic acid], the IC50 is less than 10 µM.

Consider `O=C(NCC(Nc1nc2ccccc2[nH]1)c1cccc(C(F)(F)F)c1)c1ccncn1` (stereo not drawn) [Example 5, N-{2-[(1H-1,3-benzodiazol-2-yl)amino]-2-[3-(trifluoromethyl)phenyl]ethyl}pyrimidine-4-carboxamide; trifluoroacetic acid], for which the IC50 was less than 10 µM.

As to `O=C(NCC(Nc1nc2ccccc2[nH]1)c1cccc(C(F)(F)F)c1)c1ccccn1` (stereo not drawn) [Example 6, N-{2-[(1H-1,3-benzodiazol-2-yl)amino]-2-[3-(trifluoromethyl)phenyl]ethyl}pyridine-2-carboxamide; trifluoroacetic acid], the IC50 was less than 10 µM.

With `N#Cc1cccc(C(=O)NCC(Nc2nc3ccccc3[nH]2)c2cccc(C(F)(F)F)c2)c1` (stereo not drawn) [Example 7, N-{2-[(1H-1,3-benzodiazol-2-yl)amino]-2-[3-(trifluoromethyl)phenyl]ethyl}-3-cyanobenzamide], the IC50 is less than 10 µM.

With `O=C(NCC(Nc1nc2ccccc2[nH]1)c1cccc(C(F)(F)F)c1)C1CCOCC1` (stereo not drawn) [Example 8, N-{2-[(1H-1,3-benzodiazol-2-yl)amino]-2-[3-(trifluoromethyl)phenyl]ethyl}oxane-4-carboxamide], the IC50 was less than 10 µM.

For `O=C(NCC(Nc1nc2ccccc2[nH]1)c1cccc(C(F)(F)F)c1)c1cccc(F)c1` (stereo not drawn) [Example 9, N-{2-[(1H-1,3-benzodiazol-2-yl)amino]-2-[3-(trifluoromethyl)phenyl]ethyl}-3-fluorobenzamide], the IC50 is less than 10 µM.

Consider `CCC(=O)NCC(Nc1nc2ccccc2[nH]1)c1cccc(C(F)(F)F)c1` (stereo not drawn) [Example 10, N-{2-[(1H-1,3-benzodiazol-2-yl)amino]-2-[3-(trifluoromethyl)phenyl]ethyl}propanamide], for which the IC50 is less than 10 µM.

Turning to `O=C1CCCN1CC(Nc1nc2ccccc2[nH]1)c1cccc(C(F)(F)F)c1` (stereo not drawn) [Example 11, 1-{2-[(1H-1,3-benzodiazol-2-yl)amino]-2-[3-(trifluoromethyl)phenyl]ethyl}pyrrolidin-2-one], the IC50 is less than 10 µM.

As to `COCC(=O)NC[C@H](Nc1nc2ccccc2[nH]1)c1cccc(C(F)(F)F)c1` [Example 12, N-[(2R)-2-[(1H-1,3-benzodiazol-2-yl)amino]-2-[3-(trifluoromethyl)phenyl]ethyl]-2-methoxyacetamide], the IC50 was less than 10 µM.

Turning to `O=C(CO)NC[C@H](Nc1nc2ccccc2[nH]1)c1cccc(C(F)(F)F)c1` [Example 13, N-[(2R)-2-[(1H-1,3-benzodiazol-2-yl)amino]-2-[3-(trifluoromethyl)phenyl]ethyl]-2-hydroxyacetamide], the IC50 is less than 10 µM.

With `CC(=O)NCCC(Nc1nc2ccccc2[nH]1)c1cccc(C(F)(F)F)c1` (stereo not drawn) [Example 14, N-{3-[(1H-1,3-benzodiazol-2-yl)amino]-3-[3-(trifluoromethyl)phenyl]propyl}acetamide], the IC50 was less than 10 µM.

As to `O=C(NCCC(Nc1nc2c(CO)cccc2[nH]1)c1cccc(C(F)(F)F)c1)c1ccon1` (stereo not drawn) [Example 15, N-(3-{[4-(hydroxymethyl)-1H-1,3-benzodiazol-2-yl]amino}-3-[3-(trifluoromethyl)phenyl]propyl)-1,2-oxazole-3-carboxamide], the IC50 was less than 10 µM.

For `O=C(NCCC(Nc1nc2ccccc2[nH]1)c1cccc(C(F)(F)F)c1)C(F)(F)F` (stereo not drawn) [Example 16, N-{3-[(1H-1,3-benzodiazol-2-yl)amino]-3-[3-(trifluoromethyl)phenyl]propyl}-2,2,2-trifluoroacetamide; formic acid], the IC50 was less than 10 µM.

Regarding `CC(=O)NC(C)CC(Nc1nc2ccccc2[nH]1)c1cccc(C(F)(F)F)c1` (stereo not drawn) [Example 17, N-{4-[(1H-1,3-benzodiazol-2-yl)amino]-4-[3-(trifluoromethyl)phenyl]butan-2-yl}acetamide; trifluoroacetic acid], the IC50 is less than 10 µM.

Turning to `CC(=O)N(C)CCC(Nc1nc2ccccc2[nH]1)c1cccc(C(F)(F)F)c1` (stereo not drawn) [Example 18, N-{3-[(1H-1,3-benzodiazol-2-yl)amino]-3-[3-(trifluoromethyl)phenyl]propyl}-N-methylacetamide], the IC50 was less than 10 µM.

With `CC(=O)NCCCC(Nc1nc2ccccc2[nH]1)c1cccc(C(F)(F)F)c1` (stereo not drawn) [Example 19, N-{4-[(1H-1,3-benzodiazol-2-yl)amino]-4-[3-(trifluoromethyl)phenyl]butyl}acetamide], the IC50 is less than 10 µM.

Turning to `CC(=O)NCCCC(Nc1nc2cc(F)ccc2[nH]1)c1cccc(C(F)(F)F)c1` (stereo not drawn) [Example 20, N-{4-[(5-fluoro-1H-1,3-benzodiazol-2-yl)amino]-4-[3-(trifluoromethyl)phenyl]butyl}acetamide], the IC50 is less than 10 µM.

For `CC(=O)NCCC(C)(Nc1nc2ccccc2[nH]1)c1cccc(C(F)(F)F)c1` (stereo not drawn) [Example 21, N-{3-[(1H-1,3-benzodiazol-2-yl)amino]-3-[3-(trifluoromethyl)phenyl]butyl}acetamide], the IC50 was less than 10 µM.

On to `CC(=O)NCCC(Nc1nc2ccccc2[nH]1)c1cccc(OC(F)(F)F)c1` (stereo not drawn) [Example 22, N-{3-[(1H-1,3-benzodiazol-2-yl)amino]-3-[3-(trifluoromethoxy)phenyl]propyl}acetamide], for which the IC50 was less than 10 µM.

The record behind these values is US11168074B2, “Potassium channel inhibitors” (ACESION PHARMA ApS, priority 2017, dated 2021).
